Where a SMILES comes first, the peptide text is derived from it. Where no end group is shown, it is not given here.
Test: Biosimilar mucus-permeating assay, in vitro cell-free model
Assay type: in vitro ADME
Conditions: peptide 1 mM, OPA method; for Mucus permeability (in words): cell-free biosimilar mucus model, PBS pH 7.2, 25 ℃, verbal grade; for Final cumulative mucus permeability at 240 min / Cumulative mucus permeability at 60 min: cell-free, biosimilar mucus (0.3% PAA, 5% mucin, 3.1% BSA, 0.6% lipid mixture, Tween 80) on 10 KDa centrifugal filter, 1 mL, PBS pH 7.2, 470× g, 25 ℃, mean ± SEM, at least three times in triplicate
Description: An in vitro cell-free model was established in this study for the quantification of mucus-permeating property of peptides. Biosimilar mucus used in the model consisted of 0.3% (w/v) PAA, 5% (w/v) mucin, 3.1% (w/v) BSA, 0.6% (w/v) lipid mixture including 0.06% (w/v) linoleic acid, 0.36% (w/v) cholesterol, 0.18% (w/v) phosphatidylcholine, and Tween 80 (25% of lipid mixture, w/w). First, the lipid was mixed with Tween 80, whereafter PBS buffer with 150 mM NaCl (5 mM, pH 7.2) was slowly added under magnetic stirring (Cimarec, ThermoFisher Scientific, Waltham, MA USA). On the other hand, PAA was dissolved in PBS buffer prior to the addition of mucin under stirring, and pH adjusted to 7.0 using NaOH (1 M). After mixing the lipids and mucin suspension, BSA was added to finalize the biosimilar mucus and the pH was adjusted to 7.4. The mucus mixture was stored overnight at 4 ℃ before dialyzing (Fisherbrand Regenerated Cellulose Dialysis Tubing, MWCOs from 3500 to 14,000 Daltons) for 72 h against PBS buffer (5 mM, pH 7.2) containing 150 mM NaCl to remove unbound lipids and contaminating proteins from BSA. Mucus-permeating assay was conducted by firstly adding 3.8 mL of dialyzed mucus suspensions to the filter of the centrifugal unit (4 mL, 10 KDa cutoff, Amicon Ultra, Millipore Sigma) followed by centrifugation at 2935× g for 15 min to make the mucus settle down and completely cover the entire membrane before adding peptide solutions (1 mM, 1 mL) or 1 mL of PBS buffer as blank. Afterwards, the permeate during centrifugation at 25 ℃ and 470× g was collected every 15 min for 4 h. The peptide content in the permeate was measured using the OPA method. The mucus permeability of the peptides was quantified using Equation (2). (2) P=np−nb/nT×100 PP is the percentage permeability, np represents the permeated peptides (µmol), nb is the blank (µmol), and nT is the total loaded peptide amount (µmol).

Molecule | Mucus permeability (in words) | Final cumulative mucus permeability at 240 min | Cumulative mucus permeability at 60 min
CSCC[C@H](N)C(=O)N[C@@H](C)C(=O)N[C@@H](CC(N)=O)C(=O)N[C@H](C(=O)O)[C@@H](C)O [Pep2, MANT] (H-MANT-OH) | low mucus permeability | 21 ± 5% | –
CSCC[C@H](NC(=O)[C@@H](N)Cc1ccc(O)cc1)C(=O)N[C@@H](CO)C(=O)N[C@H](C(=O)O)C(C)C [Pep3, YMSV] (H-YMSV-OH) | low mucus permeability | 44 ± 12% | –
KIPAVF [Pep1, KIPAVF] | low mucus permeability | 23 ± 6% | –

More lines, now with the values ahead:

Mucus permeability (in words) | Final cumulative mucus permeability at 240 min | Cumulative mucus permeability at 60 min | Molecule
high mucus permeability | 142 ± 35% | 96 ± 30% | C[C@@H](O)[C@H](N)C(=O)N[C@@H](CC(N)=O)C(=O)NCC(=O)N[C@@H](CCC(N)=O)C(=O)O [Pep4, TNGQ] (H-TNGQ-OH)
low mucus permeability | 13 ± 2% | – | CSCC[C@H](NC(=O)[C@@H](N)CCCCN)C(=O)N1CCC[C@H]1C(=O)N[C@H](C(=O)O)C(C)C [Pep5, KMPV] (H-KMPV-OH)
high mucus permeability | 92 ± 27% | 40 ± 17% | CC(C)C[C@H](NC(=O)[C@H](CO)NC(=O)[C@H](C)NC(=O)[C@@H]1CCCN1)C(=O)O [Pep6, PASL] (H-PASL-OH)
low mucus permeability | 51 ± 9% | – | QIGLF [Pep7, QIGLF]

From PMC8774657, “Peptide-Mucin Binding and Biosimilar Mucus-Permeating Properties” (Gels, 2021)
